Test results from article PMC7613620, “Reaction hijacking of tyrosine tRNA synthetase as a whole-of-life-cycle antimalarial strategy” (Science (New York, N.Y.), 2022).

System: P. falciparum Pf3D70087/N9
Experiment: Therapeutic efficacy in SCID mouse P. falciparum model
Format: in vivo, Plasmodium falciparum
Conditions: single dose 50 mg/kg i.p.
Excerpt: 589 by genomic sequencing and were routinely tested for mycoplasma contamination using MycoAlert™
590 Mycoplasma Detection Kit (Lonza, Capsugel Australia).
592 E1-E2 Transthiolation Assays
593 An Homogeneous Time-Resolved Fluorescence (HTRF) enzyme assay was employed to evaluate
594 compound activity against ATG7 as previously described (11). In this assay, a Flag-tagged ATG8 homolog
595 (GABA type A receptor-associated protein; GABARAP) is activated by ATG7 and then transthiolated to a
596 GST-tagged E2 (ATG3). The product of the enzyme reaction, Flag-GABARAP-ATG3-GST, is quantified
597 by measuring FRET between Europium-Cryptate labelled monoclonal anti-Flag M2 (CisBio International,
598 Cat# 61FG2KLB) and PHYCOLINK goat anti-GST allophycocyanin (Prozyme, PJ252p1). The activation
599 and transthiolation of ubiquitin by Ubiquitin Activating Enzyme, activation and transthiolation of NEDD8 […]
605 Activity against male gametes was assessed using the dual gamete formation assay (PfDGFA)(32). […]
609 exflagellation was recorded and quantified by automated microscopy. […]
610 express Pfs25 on their surface after 24 h at 28°C was assessed by single-image fluorescence microscopy. […]
624 falciparum (Pf3D70087/N9) on day 0. The antimalarial efficacy was assessed following administration (i.p.) […]
638 precipitated with acetonitrile and the remaining compound was assessed by LC-MS/MS in the selected reaction […]

## Nc1ncnc2c1c(OC(F)F)nn2[C@@H]1O[C@H](COS(N)(=O)=O)[C@@H](O)[C@H]1O [ML901]
SCID mice engrafted with P. falciparum infected human RBCs
  effect on parasitemia: reduction of parasitemia to baseline
SCID mice
  toxicity: no evidence of toxicity
